The test system of experiment [1] is pathogens of clinical samples. Nature of the experiment: Molecular phenotypic antimicrobial susceptibility test of clinical samples, extraction DNA purification step prior to PCR (Table 6). It counts as cell-based. As for the experimental part: (§1) Detection of Molecular Phenotypic Antimicrobial Susceptibility. Disclosed herein are the methods for the detection of phenotypic antimicrobial susceptibility via molecular methods. The present invention describes how a specimen 100 with a known microbial load is incubated and then exposed to a panel of antimicrobial agents to determine sensitivity (prevention of growth) or resistance (allowance of growth) to the specific antimicrobial agents tested utilizing molecular methods.
Sample Collection. Specimens 100 are collected from patients using sterile collection processes that are employed in routine clinical care. Specimens are transported to the testing facility in boric acid preservative.
Preparation of the Specimens for Testing. […] The process for pathogen isolation includes steps of harvesting the pathogen (e.g., via centrifugation), isolating pathogen DNA via a DNA isolation and/or purification kit, and performing PCR on the pathogen DNA via PCR components (e.g., primers, enzymes, buffers) as would be known to the skilled artisan. […] This aliquot is used for antimicrobial susceptibility testing if indicated based on the pathogen detection results. […] Specimens 100 with lower pathogen loads could also be utilized in the antibiotic susceptibility phase of testing with or without a longer incubation period.
(§2) Preparation of Antimicrobial Susceptibility Testing Plates. Antimicrobial solutions are prepared at known concentrations. The specific antimicrobials and their concentrations are selected based on the pathogen of interest and the described antimicrobial resistance breakpoints for that specimen pathogen and antimicrobial combination. These antimicrobials have been selected based on those commonly utilized by healthcare providers in routine clinical care for the specific type of suspected infection. The number and types of antimicrobials utilized can be customized based on the infection source, pathogen detected, patient-specific factors such as allergies or other health conditions (e.g., chronic kidney disease or concurrent medication use), or healthcare provider preferences such as antimicrobial availability or cost.
The antimicrobial solutions are prepared in liquid culture media (such as Muller Hinton Broth) to achieve the desired antimicrobial concentration and are then stored at −80° C. until use. For a given specimen, each antimicrobial is tested at a single or multiple antimicrobial concentration(s) which is its established breakpoints for sensitivity. The antimicrobial solutions are prepared and plated out for each specific pathogen. […] This allows for evaluation of pathogen load when no antimicrobial is present.
Specimen Exposure to Antimicrobial Agents. The 1 mL aliquot of the specimen 100 previously mixed with culture media and incubated is obtained. Using optical density measurements as a guide, the specimen 100 is diluted to 0.5 McFarland.
Antimicrobial exposure plates are typically placed into an incubator for 12-16 hours.
Nucleic Acid Amplification of Antimicrobial Agent Exposed Pathogens. The antimicrobial exposure plate is removed after the period of incubation. The specimen then undergoes a purification or lysis step. For example, the specimen may undergo a purification step (e.g., magnetic bead-based or other separation protocol to isolate genetic material). In another example, the specimen may undergo a cell lysis step. For example, buffer (e.g., lysis buffer) may be added and incubated in the thermal cycler for preparation for direct PCR. Next, the specimen may undergo a polymerase chain reaction (PCR) testing protocol, whereby a semi-quantitative PCR method is utilized. This may be completed either with or without a specific extraction protocol step. The pathogens can be individually targeted and detected, or a universal genetic sequence can be utilized to detect the antimicrobial susceptibility of the specimen as a whole.

The test system of experiment [2] is E. coli. Briefly: Molecular phenotypic antimicrobial susceptibility test, specimen with two detected pathogens incubated together without isolation. It is filed as cell-based, Escherichia coli. To be noted: E. coli in specimen with two detected pathogens (E. coli and M. morganii) incubated together; for Ct of Sensitive Breakpoint: Ct of controls (average) 15.93; for Molecular Antimicrobial Susceptibility Result: at sensitive breakpoint. As for the experimental part: as §1
Sample Collection. Specimens 100 are collected from patients using sterile collection processes that are employed in routine clinical care. Specimens are transported to the testing facility in boric acid preservative. Specimens 100 are subsequently divided into a first sample 104 and a second sample 108.
Preparation of the Specimens for Testing. The specimens 100 are put through a pathogen identification process using PCR technology (e.g., using the first sample 104). The process for pathogen isolation includes steps of harvesting the pathogen (e.g., via centrifugation), isolating pathogen DNA via a DNA isolation and/or purification kit, and performing PCR on the pathogen DNA via PCR components (e.g., primers, enzymes, buffers) as would be known to the skilled artisan. Simultaneously, an additional aliquot of the same specimen (e.g., the second sample 108) is placed with liquid culture media and incubated for 4-6 hours. This aliquot is used for antimicrobial susceptibility testing if indicated based on the pathogen detection results. After pathogen identification is completed and if more than 10,000 cells/mL of bacteria (e.g., eligible bacteria) are detected in the source specimen, the second sample 108 then enters the antimicrobial susceptibility phase of testing. Specimens 100 with lower pathogen loads could also be utilized in the antibiotic susceptibility phase of testing with or without a longer incubation period.
as §2
The antimicrobial solutions are prepared in liquid culture media (such as Muller Hinton Broth) to achieve the desired antimicrobial concentration and are then stored at −80° C. until use. For a given specimen, each antimicrobial is tested at a single or multiple antimicrobial concentration(s) which is its established breakpoints for sensitivity. The antimicrobial solutions are prepared and plated out for each specific pathogen. This allows ease of use on the day of testing after defrosting the plate 112. Table 1, which illustrates the results of molecular phenotypic antimicrobial susceptibility testing when more than one organism is present in the source specimen, provides an example of an antimicrobial plate 112 prepared for this purpose. Of note, control wells containing only culture media are present on all plates 112. This allows for evaluation of pathogen load when no antimicrobial is present.
Specimen Exposure to Antimicrobial Agents. The 1 mL aliquot of the specimen 100 previously mixed with culture media and incubated is obtained. Using optical density measurements as a guide, the specimen 100 is diluted to 0.5 McFarland. […]

Regarding `CO/N=C(\C(=O)N[C@@H]1C(=O)N2C(C(=O)O)=C(CSc3nc(=O)c(=O)[nH]n3C)CS[C@H]12)c1csc(N)n1` [Ceftriaxone], the “Molecular Antibiotic Susceptibility Result” value in experiment [1] (E. coli, clinical sample of r10-r24) is “Sensitive (Antimicrobial wells with pathogen load detected below the control wells (typically >2 cycle thresholds later) may be reported as Sensitive)”; in experiment [1] (E. coli, clinical sample of r158-r172), “Sensitive (Antimicrobial wells with pathogen load detected below the control wells (typically >2 cycle thresholds later) may be reported as Sensitive)”; in experiment [1] (K. aerogenes, clinical sample of r136-r150), “Sensitive (Antimicrobial wells with pathogen load detected below the control wells (typically >2 cycle thresholds later) may be reported as Sensitive)”; in experiment [1] (K. pneumoniae, clinical sample of r121-r135), “Sensitive (Antimicrobial wells with pathogen load detected below the control wells (typically >2 cycle thresholds later) may be reported as Sensitive)”; in experiment [1] (M. morganii, clinical sample of r55-r69), “Sensitive (Antimicrobial wells with pathogen load detected below the control wells (typically >2 cycle thresholds later) may be reported as Sensitive)”; in experiment [1] (M. morganii, clinical sample of r70-r84), “Sensitive (Antimicrobial wells with pathogen load detected below the control wells (typically >2 cycle thresholds later) may be reported as Sensitive)”. Further, the “Molecular Antibiotic Susceptibility Result” value in experiment [1] (P. mirabilis, clinical sample of r25-r39) is on record as “Sensitive (Antimicrobial wells with pathogen load detected below the control wells (typically >2 cycle thresholds later) may be reported as Sensitive)”; in experiment [1] (P. mirabilis, clinical sample of r40-r54) it was “Sensitive (Antimicrobial wells with pathogen load detected below the control wells (typically >2 cycle thresholds later) may be reported as Sensitive)”. Also, the Ct was 26.029 in experiment [1] (E. coli, clinical sample of r10-r24, Ct Control Avg 18.112); 29.851 in experiment [1] (E. coli, clinical sample of r158-r172, Ct Control Avg 20.146); 33.124 in experiment [1] (K. aerogenes, clinical sample of r136-r150, Ct Control Avg 19.994); 33.145 in experiment [1] (K. pneumoniae, clinical sample of r121-r135, Ct Control Avg 24.272); 35.749 in experiment [1] (M. morganii, clinical sample of r55-r69, Ct Control Avg 28.86); 36.141 in experiment [1] (M. morganii, clinical sample of r70-r84, Ct Control Avg 27.053). Moreover, the Ct in experiment [1] (P. mirabilis, clinical sample of r25-r39, Ct Control Avg 26.064) came to 29.277; in experiment [1] (P. mirabilis, clinical sample of r40-r54, Ct Control Avg 26.987), 32.789. Besides, the “Ct of Sensitive Breakpoint” value in experiment [2] is listed as 28.57. Further, the “Molecular Antimicrobial Susceptibility Result” value in experiment [2] is listed as “Sensitive (Antimicrobial wells with pathogen load detected below the control wells (typically >2 cycle thresholds later) may be reported as Sensitive)”.
Turning to `CN[C@H](CC(C)C)C(=O)N[C@H]1C(=O)N[C@@H](CC(N)=O)C(=O)N[C@H]2C(=O)N[C@H]3C(=O)N[C@H](C(=O)N[C@H](C(=O)O)c4cc(O)cc(O)c4-c4cc3ccc4O)[C@H](O)c3ccc(c(Cl)c3)Oc3cc2cc(c3O[C@@H]2O[C@H](CO)[C@@H](O)[C@H](O)[C@H]2O[C@H]2C[C@](C)(N)[C@H](O)[C@H](C)O2)Oc2ccc(cc2Cl)[C@H]1O` [Vancomycin], the “Molecular Antibiotic Susceptibility Result” value in experiment [1] (E. faecalis, clinical sample of r93-r99) is “Sensitive (Antimicrobial wells with pathogen load detected below the control wells (typically >2 cycle thresholds later) may be reported as Sensitive)”; in experiment [1] (E. faecalis, clinical sample of r100-r106) it was “sensitive”; in experiment [1] (E. faecalis, clinical sample of r107-r113) it was “sensitive”; in experiment [1] (E. faecalis, clinical sample of r114-r120), “Sensitive (Antimicrobial wells with pathogen load detected below the control wells (typically >2 cycle thresholds later) may be reported as Sensitive)”; in experiment [1] (E. faecalis, clinical sample of r151-r157), “Sensitive (Antimicrobial wells with pathogen load detected below the control wells (typically >2 cycle thresholds later) may be reported as Sensitive)”; in experiment [1] (S. aureus, clinical sample of r85-r92) it was “Resistant”. Also, the Ct in experiment [1] (E. faecalis, clinical sample of r100-r106, Ct Control Avg 23.073) is given as 37.981; in experiment [1] (E. faecalis, clinical sample of r107-r113, Ct Control Avg 22.144) it was 32.184; in experiment [1] (E. faecalis, clinical sample of r114-r120, Ct Control Avg 20.822), 34.122; in experiment [1] (E. faecalis, clinical sample of r151-r157, Ct Control Avg 20.56), “Undet”.
As for `O=C(O)c1cn(C2CC2)c2cc(N3CCNCC3)c(F)cc2c1=O` [Ciprofloxacin], in experiment [2], the “Ct of Sensitive Breakpoint” value was 31.81 and the “Molecular Antimicrobial Susceptibility Result” value was “Sensitive (Antimicrobial wells with pathogen load detected below the control wells (typically >2 cycle thresholds later) may be reported as Sensitive)”.

The values are drawn from patent US20250290117A1, “MOLECULAR PHENOTYPIC ANTIMICROBIAL SUSCEPTIBILITY TESTING” (priority 2024, published 2025).
